Results reported in US20020103117A1, “Use of protein kinase-inhibitor-alpha” (priority 2000, published 2002).

Experiments:
[1] = tested on: functioning rat heart; test: Action of PKI-alpha on an isolated, perfused functioning rat heart; design: species or system Sprague Dawley rats
Experimental: Hearts from a total of six Sprague Dawley rats with a weight of about 300 g were isolated and perfused as described in Schulze et al. (Schulze et al.; Circulation 1990: 959-69). The hemodynamic parameters including contractility, external heart work (EHW), coronary and aortic flow were recorded about 15 minutes after antegrade perfusion. Cell-permeable, recombinant PKI-alpha (amino acids 14 to 22, Calbiochem #476485) was then administered. The compound was infused directly into the atrium canula using a motor pump. The infusion rate was continuously adapted to the emission volume (the sum of the aortic and coronary flow) and increased in five-minute intervals to reach the final PKI-alpha concentrations in the perfusate of 0.5, 1.0 and 2.0 μmol/l.

[2] = tested on: protein kinase-A; test: Activity of protein kinase-A in cell cultures of myocytes; format: cell-based; conditions: cell cultures of myocytes (e.g., C9H2 cells)
Experimental: The protein-kinase-inhibitor alpha shortened to amino acids 14 to 22 was added to the cell cultures of myocytes (e.g., C9H2 cells, available from the American Type Culture Collection), and the activity of protein kinase-A was determined.
The 9-amino-acid-long PKI-alpha inhibitor (the gene product of the second open reader frame of the PKI gene in humans and in pigs) was added to the cell cultures of myocytes, and the expression of the PKI-alpha and the activity of protein kinase-A were determined.

[3] = PKI-alpha in perfusate 0.5, 1.0 and 2.0 μmol/l

Question: Which “decrease of the left ventricular function, expressed as dp/dt-max” value [1, 3] does the source give for “shortened PKI-alpha: Cell-permeable, recombinant PKI-alpha comprising only amino acids 14 to 22 of the complete sequence, Calbiochem #476485” here?
Answer: 53%

Question: And the “reduction of the external heart work” value [1, 3]?
Answer: 43%

Question: And the “depression of the myocardial function” value ([1]; infusion up to 2 μmol)?
Answer: pronounced, reversible, concentration-dependent (up to 2 μmol) depression of the myocardial function

Question: What about the “activity of protein kinase-A” value [2] of the same substance?
Answer: dose-dependent reduction of activity
